In PMC9653606, “Synergistic Effect of DIBOA and Verbascoside from Acanthus mollis Leaf on Tyrosinase Inhibition” (International Journal of Molecular Sciences, 2022):

Molecular target: mushroom tyrosinase
Test: L-DOPA oxidation (dopachrome, […] nm) inhibition assay with Lineweaver-Burk kinetics
Assay type: biochemical

SMILES | IC50 [µM]
C[C@@H]1O[C@@H](O[C@@H]2[C@@H](O)[C@H](OCCc3ccc(O)c(O)c3)O[C@H](CO)[C@H]2OC(=O)/C=C/c2ccc(O)c(O)c2)[C@H](O)[C@H](O)[C@H]1O [compound 8, 2-(3,4-dihydroxyphenyl)ethyl-1-O-α-L-rhamnopyranosyl-(1→3)-(4-O-Ε-caffeoyl)-β-D-glucopyranoside] | 22.7 ± 2.83
O=C1C(O)Oc2ccccc2N1O (centres unmarked) [compound 1, 2,4-dihydroxy-1,4-benzoxazin-3-one] | 27.2 ± 3
